Literature values in patent publication US20140234406A1, “NOVEL NANOPARTICULATE SUSPENSION FOR INCORPORATING FAT-SOLUBLE VITAMINS IN THE TREATMENT OF HAIR THINNING and HAIR LOSS” (HairRx, priority 2013, published 2014).

Settings: biological half-life; reported by Yap et al. 2001 and Schwedhelm et al. 2003

With `Cc1c(C)c2c(c(C)c1O)CC[C@@](C)(CCC[C@H](C)CCC[C@H](C)CCCC(C)C)O2` [alpha-tocopherol] as the compound, how does the half-life read?
The half-life was 73 to 81 h.
